Laboratory results from paper PMC5357792, “Identification of mangiferin as a potential Glucokinase activator by structure-based virtual ligand screening” (Scientific Reports, 2017).

These compounds were tested against T1, Glucokinase (GK) (Homo sapiens, UniProt P35557) (assay: microscale thermophoresis with labelled recombinant GK). Conditions: read-out: Dissociation constant with GK / Kd.
T1 construct: gene GCK; full-length human glucokinase (GenBank: BC001890.1), C-terminally hexa-histidine tagged
T1 sequence (P35557 1-465): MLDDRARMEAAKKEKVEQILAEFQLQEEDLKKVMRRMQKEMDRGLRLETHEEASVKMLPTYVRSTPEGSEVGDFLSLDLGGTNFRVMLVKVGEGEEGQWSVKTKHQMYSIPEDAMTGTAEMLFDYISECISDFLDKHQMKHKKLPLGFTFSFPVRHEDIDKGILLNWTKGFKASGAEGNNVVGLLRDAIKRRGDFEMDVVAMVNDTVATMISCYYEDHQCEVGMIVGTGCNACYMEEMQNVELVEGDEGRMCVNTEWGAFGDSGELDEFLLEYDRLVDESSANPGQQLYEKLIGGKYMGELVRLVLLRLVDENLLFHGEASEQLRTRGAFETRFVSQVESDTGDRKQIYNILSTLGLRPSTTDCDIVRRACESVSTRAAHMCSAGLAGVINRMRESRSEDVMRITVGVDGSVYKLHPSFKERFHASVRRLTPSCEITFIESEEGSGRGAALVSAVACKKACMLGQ
Type: binding
With O=C(Nc1ncc(SCCN2CCCC2)s1)[C@]1(c2ccc(S(=O)(=O)C3CC3)cc2)C[C@H]1C1CCCCC1 [LY2608204] the Kd was 600 ± 36.1 µM.

The compounds below were run against T1, Glucokinase (GK) (assay: microscale thermophoresis with labelled recombinant GK; also coupled G6PDH enzyme activation assay (EC50 ca. […])). Conditions: read-out: Dissociation constant with GK / Kd.
Type: binding
For O=c1c2cc(O)c(O)cc2oc2cc(O)c([C@@H]3O[C@H](CO)[C@@H](O)[C@H](O)[C@H]3O)c(O)c12 [compound 7, mangiferin], the Kd was 472 ± 20.5 µM.

Each compound was assayed against T1, Glucokinase (GK) (assay: biochemical). Conditions: not given.
Set-up: G6PDH-coupled spectrophotometric glucokinase activity, NADPH absorbance at 340 nm, 10 mM glucose, 37 °C
Description: The in vitro efficacy of twelve compounds was assessed in two separate steps: a SC50 assay to evaluate the potency of each compound at a unified compound concentration of 50 μM. Then, we seek to obtain the values of EC50 and kinetic parameters Ka, Vmax of promising compounds, according to a reported method with minor modifications. Briefly, Twelve compounds unified in the same concentration of 50 μM were assayed in a 96-well plate with a final reaction volume of 100 μl. The reaction mixture consisted of 25 mM Hepes (pH 7.5), 10 mM glucose, 1 mM ATP, 4 U/ml G6PDH (Sigma-Aldrich Co. LLC., St. Louis, MO, USA), 1 mM NADP, 2.5 mM MgCl, 50 mM KCl, 2 mM DTT, […] recombinant human glucokinase and test compounds. The whole reaction mixtures were kept under 37 °C for 20 minutes. The increase in the rate of absorbance of NADPH generated in the reactions was monitored kinetically at 340 nm. The values were calculated by comparing with untreated GK. This term is called the efficacy of stimulatory concentration (SC50). Then, the EC50 of promising candidates were determined in the presence of various fixed concentrations of compound 7 (2–300 μM). Values were calculated by fitting enzymatic rates to the Hill equation by using GraphPad Prism 5.01. In order to further investigate the activation effect of the twelve compounds on GK enzymatic activity, the recombinant GK protein had been successfully obtained by genetic engineering method. Evaluation of the twelve hits on enzymatic activity was assessed spectrometrically by a coupled reaction with glucose-6-phosphate dehydrogenase. […] The activation percentage was the GK enzyme activity in each group compared to that of the blank control group. Each compound was assayed triply. The value presents in a column as the mean ± SD (n = 3). *P < 0.05, **P < 0.01, compared to the blank control group.
O=c1c2cc(O)c(O)cc2oc2cc(O)c([C@@H]3O[C@H](CO)[C@@H](O)[C@H](O)[C@H]3O)c(O)c12 [compound 7, mangiferin] showed an EC50 of 156 µM.

Same assay, conditions: untreated GK = 100%; read-out: % of control remaining
NC(=O)c1coc(-c2csc(NC(=O)c3ccc(Cl)cc3)n2)c1 [compound 2, 2] showed a remaining activity at 50 µM of 86.5 ± 5.71%. For O=C1NCC(c2ccc(Cl)cc2)Cc2[nH]c(-c3ncc[nH]3)nc21 (centres unmarked) [compound 10, 10], the remaining activity at 50 µM was 94.3 ± 1.49%. With Cc1sc2ncnc(SCC(=O)Nc3c[nH]ccc3=O)c2c1C [compound 5, 5] the remaining activity at 50 µM was 87.6 ± 5.67%. Work on O=C(NCC(c1cccs1)c1c[nH]c2ccccc12)c1ccccn1 (centres unmarked) [compound 6, 6] yielded a remaining activity at 50 µM of 90 ± 3.88%. Compound Oc1ccc(Nc2ncnc3sccc23)cc1CN1CCOCC1 [compound 4, 4] has a remaining activity at 50 µM of 37.8 ± 12%. For CC(O)CNc1nc2ccccc2n1Cc1nc(N)nc(N(C)C)n1 (centres unmarked) [compound 8, 8], the remaining activity at 50 µM was 92 ± 0.96%. For Cn1ccc(NC(=O)N(Cc2ccccc2)CC(O)c2ccco2)n1 (centres unmarked) [compound 9, 9], the remaining activity at 50 µM was 82.4 ± 6.72%. Compound COc1ccccc1C(=O)Nc1cccc(NC(=O)c2ncc[nH]2)c1 [compound 11, 11] has a remaining activity at 50 µM of 75.9 ± 6.72%. With O=C(Nc1nc(-c2c[nH]c3ccccc23)cs1)c1cnccn1 [compound 1, 1] the remaining activity at 50 µM was 86.1 ± 5.68%. O=c1c2cc(O)c(O)cc2oc2cc(O)c([C@@H]3O[C@H](CO)[C@@H](O)[C@H](O)[C@H]3O)c(O)c12 [compound 7, mangiferin] was tested, and the remaining activity at 50 µM was 126 ± 2.83%. Cc1nc(S)sc1CC(=O)Nc1c[nH]ccc1=O [compound 3, 3] showed a remaining activity at 50 µM of 46.7 ± 1.21%.
